Laboratory results from patent US12077503B2, “Substituted cyclic amides and their use as herbicides” (FMC CORPORATION, priority 2015, dated 2024).

Assays:
Assay type in all cases: in vivo
Kochia (Kochia scoparia) [1] = experiment: Test A preemergence; settings: Bassia scoparia, pre-emergence, 240 h, 0 to 100 scale where 0 is no effect and 100 is complete control, read-out: Kochia plant response rating; for pest or weed control at 31 g/ha: 31 g ai/ha, Preemergence; for pest or weed control at 125 g/ha: 125 g ai/ha, preemergence, approx. 10 d
Method in brief: (§1)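 Preemergence directed soil spray on seeded pots, or postemergence application to plants 2–10 cm, one- to two-leaf. Solvent mixture non-phytotoxic, with surfactant. Scored ~10 d later, visually, 0–100 vs untreated.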

[2] = test system: barnyardgrass (Echinochloa crus-galli); experiment: Test A preemergence; settings: Echinochloa crus-galli, pre-emergence, 240 h, 0 to 100 scale where 0 is no effect and 100 is complete control, read-out: Barnyardgrass plant response rating; for pest or weed control at 31 g/ha: 31 g ai/ha, Preemergence; for pest or weed control at 125 g/ha: 125 g ai/ha, preemergence, approx. 10 d
Method in brief: as §1

[3] = test system: giant foxtail (Setaria faberii); experiment: Test A preemergence; settings: Setaria faberi, pre-emergence, 240 h, 0 to 100 scale where 0 is no effect and 100 is complete control, read-out: Foxtail, Giant plant response rating; for pest or weed control at 31 g/ha: 31 g ai/ha, Preemergence; for pest or weed control at 125 g/ha: 125 g ai/ha, preemergence, approx. 10 d
Method in brief: as §1

[4] = test system: pigweed (Amaranthus retroflexus); experiment: Test A preemergence; settings: Amaranthus retroflexus, pre-emergence, 240 h, 0 to 100 scale where 0 is no effect and 100 is complete control, read-out: Pigweed plant response rating; for pest or weed control at 31 g/ha: 31 g ai/ha, Preemergence; for pest or weed control at 125 g/ha: 125 g ai/ha, preemergence, approx. 10 d
[5] = test system: ragweed (common ragweed, Ambrosia elatior); experiment: Test A preemergence; settings: Ambrosia artemisiifolia, pre-emergence, 240 h, 0 to 100 scale where 0 is no effect and 100 is complete control, read-out: Ragweed plant response rating; for pest or weed control at 31 g/ha: 31 g ai/ha, Preemergence; for pest or weed control at 125 g/ha: 125 g ai/ha, preemergence, approx. 10 d
Method in brief: as §1

[6] = test system: ryegrass, Italian (Italian ryegrass, Lolium multiflorum); experiment: Test A preemergence; settings: Lolium multiflorum, pre-emergence, 240 h, 0 to 100 scale where 0 is no effect and 100 is complete control, read-out: Ryegrass, Italian plant response rating; for pest or weed control at 31 g/ha: 31 g ai/ha, Preemergence; for pest or weed control at 125 g/ha: 125 g ai/ha, preemergence, approx. 10 d
Method in brief: as §1

[7] = test system: Galium (catchweed bedstraw, Galium aparine); experiment: Test A postemergence; settings: Galium, post-emergence, 240 h; for pest or weed control at 125 g/ha: 125 g ai/ha, postemergence, visual injury vs untreated controls after approx. 10 d, 0 = no effect, 100 = complete control, read-out: Galium plant response rating (0 to 100 scale); for pest or weed control at 31 g/ha: Postemergence, 31 g ai/ha, visual injury after approx. 10 d, 0 to 100 scale, 0 no effect, 100 complete control, read-out: Plant response rating, Galium
Method in brief: as §1

Kochia (Kochia scoparia) [8] = experiment: Test A postemergence; settings: Bassia scoparia, post-emergence, 240 h; for pest or weed control at 125 g/ha: 125 g ai/ha, postemergence, visual injury vs untreated controls after approx. 10 d, 0 = no effect, 100 = complete control, read-out: Kochia plant response rating (0 to 100 scale); for pest or weed control at 31 g/ha: Postemergence, 31 g ai/ha, visual injury after approx. 10 d, 0 to 100 scale, 0 no effect, 100 complete control, read-out: Plant response rating, Kochia
Method in brief: as §1

[9] = test system: barnyardgrass (Echinochloa crus-galli); experiment: Test A postemergence; settings: Echinochloa crus-galli, post-emergence, 240 h; for pest or weed control at 125 g/ha: 125 g ai/ha, postemergence, visual injury vs untreated controls after approx. 10 d, 0 = no effect, 100 = complete control, read-out: Barnyardgrass plant response rating (0 to 100 scale); for pest or weed control at 31 g/ha: Postemergence, 31 g ai/ha, visual injury after approx. 10 d, 0 to 100 scale, 0 no effect, 100 complete control, read-out: Plant response rating, Barnyardgrass
Method in brief: as §1

[10] = test system: blackgrass (Alopecurus myosuroides); experiment: Test A postemergence; settings: Alopecurus myosuroides, post-emergence, 240 h; for pest or weed control at 125 g/ha: 125 g ai/ha, postemergence, visual injury vs untreated controls after approx. 10 d, 0 = no effect, 100 = complete control, read-out: Blackgrass plant response rating (0 to 100 scale); for pest or weed control at 31 g/ha: Postemergence, 31 g ai/ha, visual injury after approx. 10 d, 0 to 100 scale, 0 no effect, 100 complete control, read-out: Plant response rating, Blackgrass
Method in brief: as §1

corn (Zea mays) = experiment: Test A postemergence; settings: Zea mays, post-emergence, 240 h; for plant injury at 125 g/ha: 125 g ai/ha, postemergence, visual injury vs untreated controls after approx. 10 d, 0 = no effect, 100 = complete control, read-out: Corn plant response rating (0 to 100 scale); for Corn plant response rating (crop injury, 0 = no effect, 100 = complete kill) at 31 g/ha: Postemergence, 31 g ai/ha, visual injury after approx. 10 d, 0 to 100 scale, 100 complete control
Method in brief: as §1

[11] = test system: giant foxtail (Setaria faberii); experiment: Test A postemergence; settings: Setaria faberi, post-emergence, 240 h; for pest or weed control at 125 g/ha: 125 g ai/ha, postemergence, visual injury vs untreated controls after approx. 10 d, 0 = no effect, 100 = complete control, read-out: Foxtail, Giant plant response rating (0 to 100 scale); for pest or weed control at 31 g/ha: Postemergence, 31 g ai/ha, visual injury after approx. 10 d, 0 to 100 scale, 0 no effect, 100 complete control, read-out: Plant response rating, Foxtail, Giant
Method in brief: as §1

[12] = test system: pigweed (Amaranthus retroflexus); experiment: Test A postemergence; settings: Amaranthus retroflexus, post-emergence, 240 h, 125 g ai/ha, postemergence, visual injury vs untreated controls after approx. 10 d; 0 = no effect, 100 = complete control; read-out: Pigweed plant response rating (0 to 100 scale)
Method in brief: as §1

[13] = test system: ragweed (common ragweed, Ambrosia elatior); experiment: Test A postemergence; settings: Ambrosia artemisiifolia, post-emergence, 240 h, 125 g ai/ha, postemergence, visual injury vs untreated controls after approx. 10 d; 0 = no effect, 100 = complete control; read-out: Ragweed plant response rating (0 to 100 scale)
Method in brief: as §1

[14] = test system: ryegrass, Italian (Italian ryegrass, Lolium multiflorum); experiment: Test A postemergence; settings: Lolium multiflorum, post-emergence, 240 h, 125 g ai/ha, postemergence, visual injury vs untreated controls after approx. 10 d; 0 = no effect, 100 = complete control; read-out: Ryegrass, Italian plant response rating (0 to 100 scale)
Method in brief: as §1

[15] = test system: wheat (Triticum aestivum); experiment: Test A postemergence; settings: Triticum aestivum, post-emergence, 240 h, 125 g ai/ha, postemergence, visual injury vs untreated controls after approx. 10 d; 0 = no effect, 100 = complete control; read-out: Wheat plant response rating (0 to 100 scale)
Method in brief: as §1

[16] = test system: barnyardgrass (Echinochloa crus-galli); experiment: Test B flooded paddy test; settings: Echinochloa crus-galli, 250 g ai/ha, Flood; 0 to 100 scale where 0 is no effect and 100 is complete control; read-out: Barnyardgrass plant response rating
Method in brief: (§2)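 Plants at 2-leaf stage flooded to 3 cm above soil, with compounds applied directly to paddy water and that depth maintained. Plants kept in greenhouse 13–15 d. Visual rating versus controls on a 0 (no effect) to 100 (complete control) scale.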

[17] = test system: ducksalad (Heteranthera limosa); experiment: Test B flooded paddy test; settings: Heteranthera limosa, 250 g ai/ha, Flood; 0 to 100 scale where 0 is no effect and 100 is complete control; read-out: Ducksalad plant response rating
Method in brief: as §2

rice (Oryra sativa) = experiment: Test B flooded paddy test; settings: Oryza sativa, 250 g ai/ha, Flood; 0 to 100 scale where 0 is no effect and 100 is complete control; read-out: Rice plant response rating
Method in brief: as §2

[18] = test system: sedge, umbrella (small-flower umbrella sedge, Cyperus difformis); experiment: Test B flooded paddy test; settings: Cyperus difformis, 250 g ai/ha, Flood; 0 to 100 scale where 0 is no effect and 100 is complete control; read-out: Sedge, Umbrella plant response rating
Method in brief: as §2

Row | Compound | pest or weed control at 31 g/ha (Kochia (Kochia scoparia) [1]) | pest or weed control at 125 g/ha (Kochia (Kochia scoparia) [1]) | pest or weed control at 31 g/ha [2] | pest or weed control at 125 g/ha [2] | pest or weed control at 31 g/ha [3] | pest or weed control at 125 g/ha [3] | pest or weed control at 31 g/ha [4] | pest or weed control at 125 g/ha [4] | pest or weed control at 31 g/ha [5] | pest or weed control at 125 g/ha [5] | pest or weed control at 31 g/ha [6] | pest or weed control at 125 g/ha [6] | pest or weed control at 125 g/ha [7] | pest or weed control at 31 g/ha [7] | pest or weed control at 31 g/ha (Kochia (Kochia scoparia) [8]) | pest or weed control at 125 g/ha [9] | pest or weed control at 31 g/ha [9] | pest or weed control at 125 g/ha [10] | pest or weed control at 31 g/ha [10] | plant injury at 125 g/ha (corn (Zea mays)) | other results
1 | CN1C[C@H](c2ccc([Si](C)(C)C)cc2)[C@@H](C(=O)Nc2cccc(F)c2F)C1=O [Compound 1168] | 0% | 0% | 0% | 0% | 0% | 30% | 0% | 0% | 0% | 0% | 0% | 0% | 30% | 0% | 0% | 0% | 0% | 0% | 0% | 0% | pest or weed control at 125 g/ha (Kochia (Kochia scoparia) [8]): 0%; Corn plant response rating (crop injury, 0 = no effect, 100 = complete kill) at 31 g/ha (corn (Zea mays)): 0%; pest or weed control at 125 g/ha [11]: 20%; pest or weed control at 31 g/ha [11]: 0%; pest or weed control at 125 g/ha [12]: 0%; pest or weed control at 125 g/ha [13]: 0%; pest or weed control at 125 g/ha [14]: 0%; plant injury at 125 g/ha [15]: 20%; pest or weed control at 250 g/ha [16]: 40%; pest or weed control at 250 g/ha [17]: 0%; pest or weed control at 250 g/ha (rice (Oryra sativa)): 30%; pest or weed control at 250 g/ha [18]: 0%
2 | CON1CC[C@H](c2cccc(C(F)(F)F)c2)[C@@H](C(=O)Nc2cccc(F)c2F)C1=O [Compound 1169] | 30% | 30% | 70% | 90% | 70% | 90% | 0% | 0% | 0% | 0% | 0% | 0% | 0% | 0% | 0% | 80% | 30% | 0% | 0% | 0% | pest or weed control at 125 g/ha (Kochia (Kochia scoparia) [8]): 20%; Corn plant response rating (crop injury, 0 = no effect, 100 = complete kill) at 31 g/ha (corn (Zea mays)): 0%; pest or weed control at 125 g/ha [11]: 70%; pest or weed control at 31 g/ha [11]: 30%; pest or weed control at 125 g/ha [12]: 0%; pest or weed control at 125 g/ha [13]: 0%; pest or weed control at 125 g/ha [14]: 0%; plant injury at 125 g/ha [15]: 0%; pest or weed control at 250 g/ha [16]: 0%; pest or weed control at 250 g/ha [17]: 0%; pest or weed control at 250 g/ha (rice (Oryra sativa)): 0%; pest or weed control at 250 g/ha [18]: 0%
3 | CON1CC[C@H](c2cccc(C(F)(F)F)c2)[C@@H](C(=O)Nc2ccc(F)c(F)c2F)C1=O [Compound 1170] | 0% | 0% | 0% | 40% | 0% | 70% | 0% | 0% | 0% | 0% | 0% | 0% | 30% | 20% | 0% | 60% | 0% | 20% | 0% | 0% | Corn plant response rating (crop injury, 0 = no effect, 100 = complete kill) at 31 g/ha (corn (Zea mays)): 0%; pest or weed control at 125 g/ha [11]: 60%; pest or weed control at 31 g/ha [11]: 0%; pest or weed control at 125 g/ha [12]: 0%; pest or weed control at 125 g/ha [13]: 0%; pest or weed control at 125 g/ha [14]: 0%; plant injury at 125 g/ha [15]: 0%; pest or weed control at 250 g/ha [16]: 30%; pest or weed control at 250 g/ha [17]: 40%; pest or weed control at 250 g/ha (rice (Oryra sativa)): 0%; pest or weed control at 250 g/ha [18]: 0%
